Counter-ions that a name gives are not always drawn.

This assay has as its target T1, Sirt6 (Homo sapiens, UniProt Q8N6T7).
T1 construct: purchased CycLex CY-1156V2
Nature of the assay: Measurement of Sirt6 Activity (CycLex Sirt6 Deacetylase Fluorometric Assay Kit). It is filed as biochemical. Conditions: compound at 10 μM; fluorescence relative to the group without compound treatment (positive control group). In outline: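 Recombinant Sirt6 with fluoro-labelled acetyl-lysine peptide, NAD and lysylendopeptidase developer, compound added from 10× stock in PBS; 1 h at room temperature. Fluorescence read at ex 490/em 530 nm; activation expressed as fluorescence ratio relative to enzyme without compound.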

T1 sequence (Q8N6T7 whole entry): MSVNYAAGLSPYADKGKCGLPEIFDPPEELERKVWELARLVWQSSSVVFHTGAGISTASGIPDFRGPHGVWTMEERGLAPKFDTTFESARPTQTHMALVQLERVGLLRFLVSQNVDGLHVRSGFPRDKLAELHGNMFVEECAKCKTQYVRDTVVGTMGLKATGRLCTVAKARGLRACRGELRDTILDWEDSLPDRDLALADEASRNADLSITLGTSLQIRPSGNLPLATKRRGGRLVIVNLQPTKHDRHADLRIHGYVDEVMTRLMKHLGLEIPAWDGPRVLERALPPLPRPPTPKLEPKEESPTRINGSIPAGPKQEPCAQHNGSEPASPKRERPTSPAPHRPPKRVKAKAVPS

Consider `Nc1cccc(-c2nn(-c3ccc(F)cc3F)c(=O)c3ccccc23)c1` [Example 24, 4-(3-Aminophenyl)-2-(2,4-difluorophenyl)phthalazin-1(2H)-one], for which the “Sirt6 Activity (% activity, 10 μM)” value was found to be 147 % activity. Then `C/[N+]([O-])=C/c1cccc(-c2nn(-c3ccccc3)c(=O)c3ccccc23)c1` [Example 13, (Z)—N-Methyl-1-(3-(4-oxo-3-phenyl-3,4-dihydrophthalazin-1-yl)phenyl)methanimine Oxide], with 181 % activity; and `COc1ccc(-n2nc(-c3cccc(/C=[N+](\[O-])C(C)C)c3)c3ccccc3c2=O)cc1` [Example 32, (Z)—N-Isopropyl-1-(3-(3-(4-methoxyphenyl)-4-oxo-3,4-dihydrophthalazin-1-yl)phenyl) Methanimine Oxide], with 124 % activity; and `O=c1c2ccccc2c(-c2cccc(/C=[N+](\[O-])Cc3ccccc3)c2)nn1-c1ccc(F)cc1` [Example 44, (Z)—N-Benzyl-1-(3-(3-(4-fluorophenyl)-4-oxo-3,4-dihydrophthalazin-1-yl)phenyl)methanimine Oxide], with 142 % activity. In the case of `CN[C@H]1CCCCN(c2nn(C3CCCCC3)c(=O)c3ccccc23)C1.Cl` [Example 156, (S)-2-Cyclohexyl-4-(3-(methylamino)azepan-1-yl)phthalazin-1(2H)-one-hydrochloride] it was 223.9 % activity; in that of `N#CC1CCCCN(c2nn(-c3ccc(Cl)cc3F)c(=O)c3ccccc23)C1` (stereo not drawn) [Example 203, 1-(3-(4-Chloro-2-fluorophenyl)-4-oxo-3,4-dihydrophthalazin-1-yl)azepane-3-carbonitrile], 109.84 % activity; in that of `O=C(O)C1(c2cccc(-c3nn(-c4ccc(F)cc4F)c(=O)c4ccccc34)c2)CCCC1` [Example 208, 1-(3-(3-(2,4-Difluorophenyl)-4-oxo-3,4-dihydrophthalazin-1-yl)phenyl)cyclopentane-1-carboxylic Acid], 117.30 % activity. In the case of `CN(C)S(=O)(=O)Nc1cccc(-c2nn(-c3ccccc3)c(=O)c3ccccc23)c1` [Example 9] it was 154 % activity; in that of `C/[N+]([O-])=C/c1cc(-c2nn(-c3ccc(F)cc3)c(=O)c3ccccc23)ccc1F` [Example 51, (Z)-1-(2-Fluoro-5-(3-(4-fluorophenyl)-4-oxo-3,4-dihydrophthalazin-1-yl)phenyl)-N-methylmethanimine Oxide], 139 % activity.

With `CN(C)S(=O)(=O)c1cccc(-c2nn(-c3ccc(F)cc3)c(=O)c3ccccc23)c1` [Example 88, 3-(3-(4-Fluorophenyl)-4-oxo-3,4-dihydrophthalazin-1-yl)-N,N-dimethylbenzene Sulfonamide], the “Sirt6 Activity (% activity, 10 μM)” value was determined as 180 % activity. Then `O=c1c2ccccc2c(-c2ccc(F)c(/C=[N+](\[O-])Cc3ccccc3)c2)nn1-c1ccc(F)cc1` [Example 54, (Z)—N-Benzyl-1-(2-fluoro-5-(3-(4-fluorophenyl)-4-oxo-3,4-dihydrophthalazin-1-yl)phenyl) Methanimine Oxide], with 161 % activity. In the case of `CCN(CC)S(=O)(=O)c1cccc(-c2nn(-c3ccc(F)cc3F)c(=O)c3ccccc23)c1` [Example 217, 3-(3-(2,4-Difluorophenyl)-4-oxo-3,4-dihydrophthalazin-1-yl)-N,N-diethylbenzenesulfonamide] it was 185.10 % activity. With “N-(3-(4-Oxo-3-(tetrahydro-2H-pyran-4-yl)-3,4-dihydrophthalazin-1-yl)phenyl)ethanesulfonamide [Example 151]”, the “Sirt6 Activity (% activity, 10 μM)” value turned out to be 145.64 % activity.

Consider `O=c1c2ccccc2c(-c2cccnc2)nn1-c1c(F)cccc1F` [Example 116, 2-(2,6-Difluorophenyl)-4-(pyridin-3-yl)phthalazin-1(2H)-one], for which the “Sirt6 Activity (% activity, 10 μM)” value is reported as 227 % activity.

Regarding `CCS(=O)(=O)c1cccc(-c2nn(-c3ccc(F)cc3F)c(=O)c3ccc(F)cc23)c1` [Example 123, 2-(2,4-Difluorophenyl)-4-(3-(ethylsulfonyl)phenyl)-6-fluorophthalazin-1(2H)-one], the “Sirt6 Activity (% activity, 10 μM)” value is on record as 253 % activity.

`CC(C)/[N+]([O-])=C/c1cccc(-c2nn(-c3c(F)cccc3F)c(=O)c3ccccc23)c1` [Example 103, (Z)-1-(3-(3-(2,6-Difluorophenyl)-4-oxo-3,4-dihydrophthalazin-1-yl)phenyl)-N-isopropylmethanimine Oxide]: the “Sirt6 Activity (% activity, 10 μM)” value came out at 324 % activity. In the case of `O=C(O)C1(c2cccc(-c3nn(-c4ccc(F)cc4F)c(=O)c4ccccc34)c2)CCC1` [Example 207, 1-(3-(3-(2,4-Difluorophenyl)-4-oxo-3,4-dihydrophthalazin-1-yl)phenyl)cyclobutane-1-carboxylic Acid] it was 309.90 % activity; in that of `C/[N+]([O-])=C\c1ccc(-c2nn(-c3ccc(F)cc3)c(=O)c3ccccc23)cc1` [Example 36, (E)-1-(4-(3-(4-Fluorophenyl)-4-oxo-3,4-dihydrophthalazin-1-yl)phenyl)-N-methylmethanimine Oxide], 142 % activity; in that of `Cl.NC1CCCCN(c2nn(-c3ccc(F)cc3)c(=O)c3ccccc23)C1` (stereo not drawn) [Example 148, 4-(3-Aminoazepan-1-yl)-2-(4-fluorophenyl)phthalazin-1(2H)-one-hydrochloride], 184.3 % activity. Then `CCS(=O)(=O)Nc1cccc(-c2nn(-c3ccc(F)cc3)c(=O)c3ccccc23)c1` [Example 11, N-(3-(3-(4-Fluorophenyl)-4-oxo-3,4-dihydrophthalazin-1-yl)phenyl)ethanesulfonamide], with 162 % activity; and `O=c1c2ccccc2c(-c2ccc(Cl)c([N+](=O)[O-])c2)nn1-c1ccc(F)cc1` [Example 59, 4-(4-Chloro-3-nitrophenyl)-2-(4-fluorophenyl)phthalazin-1(2H)-one], with 109 % activity. Regarding `CCCS(=O)(=O)N(C)c1cccc(-c2nn(-c3ccc(F)cc3)c(=O)c3ccccc23)c1` [Example 72, N-(3-(3-(4-Fluorophenyl)-4-oxo-3,4-dihydrophthalazin-1-yl)phenyl)-N-methylpropan-1-sulfonamide], the “Sirt6 Activity (% activity, 10 μM)” value came to 115 % activity. With `CN[C@@H]1CCCCN(c2nn(-c3ccc(F)cc3F)c(=O)c3ccccc23)C1` [Example 189, (R)-2-(2,4-Difluorophenyl)-4-(3-(methylamino)azepan-1-yl)phthalazin-1(2H)-one-hydrochloride], the “Sirt6 Activity (% activity, 10 μM)” value turned out to be 273.70 % activity. Turning to `CC(C)(C(=O)Nc1ccccc1)c1cccc(-c2nn(-c3ccc(F)cc3F)c(=O)c3ccccc23)c1` [Example 181, 2-(3-(3-(2,4-difluorophenyl)-4-oxo-3,4-dihydrophthalazin-1-yl)phenyl)-2-methyl-N-phenylpropanamide], the “Sirt6 Activity (% activity, 10 μM)” value is recorded as 122.10 % activity.

On to `CC(C)/[N+]([O-])=C/c1ccc(F)c(-c2nn(-c3ccc(F)cc3)c(=O)c3ccccc23)c1` [Example 56, (Z)-1-(4-Fluoro-3-(3-(4-fluorophenyl)-4-oxo-3,4-dihydrophthalazin-1-yl)phenyl)-N-isopropylmethanimine Oxide], for which the “Sirt6 Activity (% activity, 10 μM)” value is reported as 115 % activity. Then `CCNS(=O)(=O)c1cccc(-c2nn(-c3ccc(F)cc3F)c(=O)c3ccc(F)cc23)c1` [Example 124, 3-(3-(2,4-Difluorophenyl)-7-fluoro-4-oxo-3,4-dihydrophthalazin-1-yl)-N-ethylbenzenesulfonamide], with 146 % activity; and `CS(=O)(=O)N(c1cc(-c2nn(-c3ccccc3)c(=O)c3ccccc23)ccc1Cl)S(C)(=O)=O` [Example 18, N-(2-Chloro-5-(4-oxo-3-phenyl-3,4-dihydrophthalazin-1-yl)phenyl)-N-(methylsulfonyl)methane-sulfonamide], with 114 % activity. Then `CC/[N+]([O-])=C/c1cccc(-c2nn(-c3ccc(F)cc3)c(=O)c3ccccc23)c1` [Example 16, (Z)—N-Ethyl-1-(3-(3-(4-fluorophenyl)-4-oxo-3,4-dihydrophthalazin-1-yl)phenyl)methanimine Oxide], with 221 % activity; and `CCS(=O)(=O)Nc1cccc(-c2nn(-c3cccc(F)c3)c(=O)c3ccccc23)c1` [Example 30, N-(3-(3-(3-Fluorophenyl)-4-oxo-3,4-dihydrophthalazin-1-yl)phenyl)ethanesulfonamide], with 117 % activity.

On to `CN(C)S(=O)(=O)Nc1cccc(-c2nn(-c3ccc(F)cc3)c(=O)c3ccccc23)c1` [Example 12, N-(3-(3-(4-Fluorophenyl)-4-oxo-3,4-dihydrophthalazin-1-yl)phenyl)dimethylsulfamoylamide], for which the “Sirt6 Activity (% activity, 10 μM)” value was 189 % activity. Then `O=c1c2ccccc2c(-c2cccc(S(=O)(=O)N3CCCC3)c2)nn1-c1ccc(F)cc1F` [Example 214, 2-(2,4-Difluorophenyl)-4-(3-(pyrrolidin-1-ylsulfonyl)phenyl)phthalazin-1(2H)-one], with 233.90 % activity. As for `CCS(=O)(=O)Nc1cccc(-c2nn(C3CCCCC3)c(=O)c3ccccc23)c1` [Example 128, N-(3-(3-Cyclohexyl-4-oxo-3,4-dihydrophthalazin-1-yl)phenyl)ethanesulfonamide], the “Sirt6 Activity (% activity, 10 μM)” value came to 177.53 % activity. As to `Cl.N[C@H]1CCCN(c2nn(C3CCCCC3)c(=O)c3ccccc23)C1` [Example 146, (S)-4-(3-Aminopiperidin-1-yl)-2-cyclohexylphthalazin-1(2H)-one-hydrochloride], the “Sirt6 Activity (% activity, 10 μM)” value stood at 135.2 % activity.

The record behind these values is patent US20220235011A1, “PHTHALAZINONE COMPOUNDS AND USE THEREOF” (ST PHARM CO., LTD., priority 2019, published 2022).
